Experiments:
[1] = biological target: T1, AXL (Homo sapiens, UniProt P30530); details: 10 μM; cited from earlier work
T1 construct: purchased Eurofins DiscoverX

[2] = biological target: T2, TYK2(JH1domain-catalytic) (Homo sapiens, UniProt P29597); details: 10 μM; cited from earlier work
T2 construct: TYK2(JH1domain-catalytic); purchased Eurofins DiscoverX KINOMEscan scanEDGE

[3] = biological target: T3, GSK3B (Homo sapiens, UniProt P49841); details: 10 μM; cited from earlier work
T3 construct: purchased Eurofins DiscoverX

[4] = biological target: T4, ERK1 (Homo sapiens, UniProt P27361); details: 10 μM; cited from earlier work
T4 construct: purchased Eurofins DiscoverX

[5] = biological target: T5, PLK4 (Homo sapiens, UniProt O00444); details: 10 μM; cited from earlier work
T5 construct: purchased Eurofins DiscoverX KINOMEscan scanEDGE

[6] = biological target: T6, FGFR2 (Homo sapiens, UniProt P21802); details: 10 μM; cited from earlier work
T6 construct: purchased Eurofins DiscoverX

[7] = biological target: T7, RIOK2 (Homo sapiens, UniProt Q9BVS4); details: 10 μM; cited from earlier work
T7 construct: purchased Eurofins DiscoverX KINOMEscan scanEDGE

[8] = biological target: T8, RSK2(Kin.Dom.1-N-terminal) (Homo sapiens, UniProt P51812); details: 10 μM; cited from earlier work
T8 construct: RSK2(Kin.Dom.1-N-terminal); purchased Eurofins DiscoverX KINOMEscan scanEDGE

[9] = biological target: T9, CDK11 (Homo sapiens, UniProt Q9BWU1); details: 10 μM; cited from earlier work
T9 construct: purchased Eurofins DiscoverX

[10] = biological target: T10, JNK3 (Homo sapiens, UniProt P53779); details: 10 μM; cited from earlier work
T10 construct: purchased Eurofins DiscoverX

[11] = biological target: T11, IKK-alpha (Homo sapiens, UniProt O15111); details: 10 μM; cited from earlier work
T11 construct: purchased Eurofins DiscoverX

[12] = biological target: T12, CDK7 (Homo sapiens, UniProt P50613); details: 10 μM; cited from earlier work
T12 construct: purchased Eurofins DiscoverX

[13] = biological target: T13, MET (Homo sapiens, UniProt P08581); details: 10 μM; cited from earlier work
T13 construct: purchased Eurofins DiscoverX (KINOMEscan scanEDGE service)

[14] = biological target: T14, MKNK1 (Homo sapiens, UniProt Q9BUB5); details: 10 μM; cited from earlier work
T14 construct: purchased Eurofins DiscoverX (KINOMEscan scanEDGE service)

[15] = biological target: T15, CDK2 (Homo sapiens, UniProt P24941); details: 10 μM; cited from earlier work
T15 construct: purchased Eurofins DiscoverX

[16] = biological target: T16, FGFR3 (Homo sapiens, UniProt P22607); details: 10 μM; cited from earlier work
T16 construct: purchased Eurofins DiscoverX

[17] = biological target: T17, PIK3C2B (Homo sapiens, UniProt O00750); details: 10 μM; cited from earlier work
T17 construct: purchased Eurofins DiscoverX (KINOMEscan scanEDGE service)

[18] = biological target: T18, IGF1R (Homo sapiens, UniProt P08069); details: 10 μM; cited from earlier work
T18 construct: purchased Eurofins DiscoverX

[19] = biological target: T19, EGFR (Homo sapiens, UniProt P00533); details: 10 μM; cited from earlier work
T19 construct: purchased Eurofins DiscoverX

[20] = biological target: T20, CDK3 (Homo sapiens, UniProt Q00526); details: 10 μM; cited from earlier work
T20 construct: purchased Eurofins DiscoverX

[21] = biological target: T21, FLT3 (Homo sapiens, UniProt P36888); details: 10 μM; cited from earlier work
T21 construct: purchased Eurofins DiscoverX

[22] = biological target: T22, PLK3 (Homo sapiens, UniProt Q9H4B4); details: 10 μM; cited from earlier work
T22 construct: purchased Eurofins DiscoverX KINOMEscan scanEDGE

[23] = biological target: T23, SRPK3 (Homo sapiens, UniProt Q9UPE1); details: 10 μM; cited from earlier work
T23 construct: purchased Eurofins DiscoverX KINOMEscan scanEDGE

[24] = test system: cortical neurons; assay: Spinogenesis; type: cell-based, rat; details: cortical neurons (DIV15), 10 μM, 24 h
Experimental: (A) Representative images of cortical neurons (DIV15) treated with compounds (10 μM) for 24 h. (B) Quantification of dendritic spine density (n=29-55 neurons per treatment condition). Data are represented as mean±SEM. *p<0.05, **p<0.01, ***p<0.001, ****p<0.0001, as compared to the vehicle control following a one-way ANOVA with Dunnett's post hoc test. VEH=vehicle (0.2% DMSO).
Spinogenesis. Spinogenesis experiments were performed as previously described with the exception that cells were treated at DIV14 and fixed 24 h after treatment on DIV15. The images were taken on a Nikon HCA confocal microscope with a 100×/NA 1.45 oil objective. Experiments were performed in duplicate with plates prepared using neurons obtained from independent pregnant dams. Images were analyzed by an experimenter blinded to the treatment conditions.

T23 sequence (Q9UPE1 whole entry): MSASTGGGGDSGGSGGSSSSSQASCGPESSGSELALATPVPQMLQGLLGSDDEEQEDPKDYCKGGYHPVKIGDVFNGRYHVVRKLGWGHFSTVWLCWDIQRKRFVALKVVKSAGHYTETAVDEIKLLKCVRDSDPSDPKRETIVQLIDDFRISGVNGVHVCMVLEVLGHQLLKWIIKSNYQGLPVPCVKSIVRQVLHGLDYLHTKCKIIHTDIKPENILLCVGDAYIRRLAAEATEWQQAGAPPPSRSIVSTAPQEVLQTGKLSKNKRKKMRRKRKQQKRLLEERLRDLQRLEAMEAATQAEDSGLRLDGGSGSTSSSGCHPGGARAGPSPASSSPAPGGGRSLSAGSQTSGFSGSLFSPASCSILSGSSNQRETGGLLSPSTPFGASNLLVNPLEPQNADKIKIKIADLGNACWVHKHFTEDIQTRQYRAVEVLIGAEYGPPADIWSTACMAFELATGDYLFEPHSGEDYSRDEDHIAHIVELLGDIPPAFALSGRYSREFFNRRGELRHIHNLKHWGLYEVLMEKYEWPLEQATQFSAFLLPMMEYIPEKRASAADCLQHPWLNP
T6 sequence (P21802 22-821): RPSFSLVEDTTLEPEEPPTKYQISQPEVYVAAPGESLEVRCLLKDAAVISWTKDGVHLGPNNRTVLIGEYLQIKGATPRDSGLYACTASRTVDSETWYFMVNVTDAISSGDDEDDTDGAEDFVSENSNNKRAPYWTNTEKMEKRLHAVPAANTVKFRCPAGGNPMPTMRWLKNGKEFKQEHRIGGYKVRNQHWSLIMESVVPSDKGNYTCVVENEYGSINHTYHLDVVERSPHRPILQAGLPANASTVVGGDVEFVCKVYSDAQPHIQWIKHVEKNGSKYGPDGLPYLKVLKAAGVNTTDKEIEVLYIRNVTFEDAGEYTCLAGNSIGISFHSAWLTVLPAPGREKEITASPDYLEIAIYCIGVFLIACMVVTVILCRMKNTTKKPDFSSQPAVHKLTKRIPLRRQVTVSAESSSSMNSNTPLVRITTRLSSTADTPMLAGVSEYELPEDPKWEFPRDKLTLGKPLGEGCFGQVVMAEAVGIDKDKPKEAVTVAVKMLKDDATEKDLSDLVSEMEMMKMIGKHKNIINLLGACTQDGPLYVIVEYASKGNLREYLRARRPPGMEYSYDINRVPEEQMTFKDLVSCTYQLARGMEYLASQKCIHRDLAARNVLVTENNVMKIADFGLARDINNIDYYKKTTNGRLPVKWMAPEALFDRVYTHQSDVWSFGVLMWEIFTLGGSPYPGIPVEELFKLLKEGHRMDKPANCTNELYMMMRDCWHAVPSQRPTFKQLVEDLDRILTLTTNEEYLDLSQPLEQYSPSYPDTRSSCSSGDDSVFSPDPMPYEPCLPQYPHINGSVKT
T3 sequence (P49841 whole entry): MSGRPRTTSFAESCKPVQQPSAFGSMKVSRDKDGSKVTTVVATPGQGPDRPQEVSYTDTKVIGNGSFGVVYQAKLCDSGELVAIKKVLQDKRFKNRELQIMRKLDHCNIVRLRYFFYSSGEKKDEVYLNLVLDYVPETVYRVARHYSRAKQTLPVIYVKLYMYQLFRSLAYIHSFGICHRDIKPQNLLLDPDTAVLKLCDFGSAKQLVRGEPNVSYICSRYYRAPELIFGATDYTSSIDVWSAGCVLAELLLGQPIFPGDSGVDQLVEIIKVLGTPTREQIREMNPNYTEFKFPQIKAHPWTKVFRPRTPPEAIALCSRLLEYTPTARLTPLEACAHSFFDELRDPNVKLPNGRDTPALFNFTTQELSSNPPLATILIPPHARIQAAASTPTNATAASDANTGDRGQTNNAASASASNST
T20 sequence (Q00526 whole entry): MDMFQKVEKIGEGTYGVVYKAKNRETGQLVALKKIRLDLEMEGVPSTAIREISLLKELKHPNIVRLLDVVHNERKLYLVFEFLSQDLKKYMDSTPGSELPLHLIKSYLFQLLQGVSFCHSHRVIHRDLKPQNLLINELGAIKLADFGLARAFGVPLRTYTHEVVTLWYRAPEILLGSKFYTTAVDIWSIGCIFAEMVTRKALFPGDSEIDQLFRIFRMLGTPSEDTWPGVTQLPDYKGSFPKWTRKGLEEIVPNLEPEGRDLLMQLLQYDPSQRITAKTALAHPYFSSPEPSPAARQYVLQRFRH
T10 sequence (P53779 whole entry): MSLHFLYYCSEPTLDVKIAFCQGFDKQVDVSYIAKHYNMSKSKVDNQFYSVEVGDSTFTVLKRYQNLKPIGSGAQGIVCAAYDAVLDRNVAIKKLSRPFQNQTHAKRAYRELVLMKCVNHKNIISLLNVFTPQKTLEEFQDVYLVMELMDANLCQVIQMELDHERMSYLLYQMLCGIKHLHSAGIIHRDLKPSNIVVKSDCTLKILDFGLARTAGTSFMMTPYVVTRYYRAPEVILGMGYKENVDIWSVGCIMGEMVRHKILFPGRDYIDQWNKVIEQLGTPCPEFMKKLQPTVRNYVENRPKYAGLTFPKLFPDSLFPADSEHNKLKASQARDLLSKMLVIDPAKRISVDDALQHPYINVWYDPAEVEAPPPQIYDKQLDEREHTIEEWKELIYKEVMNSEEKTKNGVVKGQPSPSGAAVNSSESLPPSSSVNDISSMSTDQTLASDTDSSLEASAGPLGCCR
T1 sequence (P30530 26-894): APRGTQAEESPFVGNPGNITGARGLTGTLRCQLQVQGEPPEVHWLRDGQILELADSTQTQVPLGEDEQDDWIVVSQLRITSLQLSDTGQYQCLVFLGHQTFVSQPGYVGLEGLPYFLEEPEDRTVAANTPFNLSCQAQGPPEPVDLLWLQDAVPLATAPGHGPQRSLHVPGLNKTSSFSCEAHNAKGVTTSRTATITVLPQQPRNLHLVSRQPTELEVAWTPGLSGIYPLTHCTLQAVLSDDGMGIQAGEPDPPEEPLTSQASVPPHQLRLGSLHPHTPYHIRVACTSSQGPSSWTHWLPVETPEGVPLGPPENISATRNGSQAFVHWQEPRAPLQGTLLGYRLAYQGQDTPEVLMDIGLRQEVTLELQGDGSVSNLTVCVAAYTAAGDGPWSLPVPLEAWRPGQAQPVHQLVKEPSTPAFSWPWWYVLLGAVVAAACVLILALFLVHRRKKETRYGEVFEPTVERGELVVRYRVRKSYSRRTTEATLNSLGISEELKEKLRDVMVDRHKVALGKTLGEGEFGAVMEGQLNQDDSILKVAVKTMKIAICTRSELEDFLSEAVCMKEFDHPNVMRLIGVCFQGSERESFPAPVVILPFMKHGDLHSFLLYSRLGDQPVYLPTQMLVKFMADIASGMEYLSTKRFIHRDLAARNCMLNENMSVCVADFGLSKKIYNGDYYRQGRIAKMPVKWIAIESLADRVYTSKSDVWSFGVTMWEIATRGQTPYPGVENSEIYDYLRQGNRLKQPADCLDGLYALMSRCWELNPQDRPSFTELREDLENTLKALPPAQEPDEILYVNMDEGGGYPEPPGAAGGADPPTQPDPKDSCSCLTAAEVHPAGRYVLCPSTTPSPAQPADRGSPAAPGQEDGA
T7 sequence (Q9BVS4 whole entry): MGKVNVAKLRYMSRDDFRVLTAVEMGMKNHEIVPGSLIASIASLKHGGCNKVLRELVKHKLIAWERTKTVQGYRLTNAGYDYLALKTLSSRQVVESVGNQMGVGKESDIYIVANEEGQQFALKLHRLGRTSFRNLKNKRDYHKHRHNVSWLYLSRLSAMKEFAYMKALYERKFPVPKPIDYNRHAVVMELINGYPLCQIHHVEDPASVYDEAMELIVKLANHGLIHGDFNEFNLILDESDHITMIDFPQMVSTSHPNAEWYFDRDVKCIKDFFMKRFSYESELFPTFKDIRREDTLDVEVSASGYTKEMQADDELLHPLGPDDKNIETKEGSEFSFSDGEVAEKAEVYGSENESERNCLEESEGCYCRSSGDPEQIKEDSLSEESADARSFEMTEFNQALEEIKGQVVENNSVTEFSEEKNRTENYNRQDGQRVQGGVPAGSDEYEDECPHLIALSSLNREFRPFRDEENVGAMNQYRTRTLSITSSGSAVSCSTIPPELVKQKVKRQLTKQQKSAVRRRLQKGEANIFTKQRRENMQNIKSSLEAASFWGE
T9 sequence (Q9BWU1 whole entry): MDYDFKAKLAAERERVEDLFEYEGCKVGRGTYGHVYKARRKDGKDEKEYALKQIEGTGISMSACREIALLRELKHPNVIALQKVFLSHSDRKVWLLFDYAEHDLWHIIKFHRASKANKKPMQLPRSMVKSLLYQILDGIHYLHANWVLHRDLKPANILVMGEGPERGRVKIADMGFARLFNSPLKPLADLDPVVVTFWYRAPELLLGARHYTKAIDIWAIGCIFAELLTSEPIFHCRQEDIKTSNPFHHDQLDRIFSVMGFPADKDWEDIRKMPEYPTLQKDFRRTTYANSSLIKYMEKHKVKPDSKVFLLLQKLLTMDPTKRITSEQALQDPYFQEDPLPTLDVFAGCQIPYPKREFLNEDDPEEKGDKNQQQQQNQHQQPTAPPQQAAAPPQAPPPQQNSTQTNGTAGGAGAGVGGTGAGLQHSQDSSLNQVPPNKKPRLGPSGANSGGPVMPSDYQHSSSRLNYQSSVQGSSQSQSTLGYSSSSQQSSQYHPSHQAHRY
T12 sequence (P50613 whole entry): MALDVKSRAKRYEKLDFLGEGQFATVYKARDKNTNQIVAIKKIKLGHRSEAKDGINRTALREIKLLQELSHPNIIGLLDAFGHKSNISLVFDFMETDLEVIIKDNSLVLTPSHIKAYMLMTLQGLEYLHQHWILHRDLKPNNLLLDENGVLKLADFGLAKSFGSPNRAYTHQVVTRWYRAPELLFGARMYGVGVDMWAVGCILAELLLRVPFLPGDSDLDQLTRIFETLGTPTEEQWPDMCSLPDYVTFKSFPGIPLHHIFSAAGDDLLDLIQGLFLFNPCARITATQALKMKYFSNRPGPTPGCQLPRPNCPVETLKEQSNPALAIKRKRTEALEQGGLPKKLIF

In the case of `COc1ccc2c(c1)[nH]c1c(C)nccc12` [Harmine, harmine], the “Percent Control” value [1] is listed as 82%, the “Percent Control” value [2] is listed as 96% and the “Percent Control” value [3] is listed as 71%. The “Percent Control” value [4] was 99%, the “Percent Control” value [5] was 77% and the “Percent Control” value [6] was 91%. The “Percent Control” value [7] was 74%, the “Percent Control” value [8] was 72% and the “Percent Control” value [9] was 83%. For the same compound, the “Percent Control” value [10] was 80%, the “Percent Control” value [11] was 81% and the “Percent Control” value [12] was 21%. For the same compound, the “Percent Control” value [13] was 100%, the “Percent Control” value [14] was 79% and the “Percent Control” value [15] was 98%. For the same compound, the “Percent Control” value [16] was 94%, the “Percent Control” value [17] was 97% and the “Percent Control” value [18] was 100%. The “Percent Control” value [19] was 96%, the “Percent Control” value [20] was 100% and the “Percent Control” value [21] was 85%. The “Percent Control” value [22] was 75% and the “Percent Control” value [23] was 84%.
For `COc1ccc2c3ccnc(C)c3n(CCN(C)C)c2c1.O=C(O)/C=C/C(=O)O` [HTW_A_8 fumarate, 2-(7-methoxy-1-methyl-9H-pyrido[3,4-b]indol-9-yl)-N,N-dimethylethan-1-amine Fumarate Salt (2:3)], the dendritic spine density [24] was “significantly increases dendritic spine density”.
